According to patent US8318772B2, “Amine compounds and medical uses thereof” (Institute of Pharmacology and Toxicology Academy of …, priority 2008, dated 2012):

Legend:
[1] = tested on: forced swim mice; assay: Forced swim test in mice; type: in vivo, ICR mice; conditions: for Immobility time: last 4 min of 6 min
Method: Mail ICR mice (SPF grade) weighing 18-22 g were placed in a glass jar (diameter 10 cm, and height 20 cm) with water 10 cm in depth and a temperature of 25° C., observed for 6 min, and the accumulated immobility time of mice (i.e., the time that the animal has no motion or a slight motion in its hind limbs, but maintains body floated without motion) during the last 4 min was recorded. The mice were administrated with the compound to be tested and Duloxetine as the positive control drug via intraperitoneal injection at 30 min before the test or via intragastric administration at 60 min before the test.
In the forced swim model of mice, the antidepressant effect was evaluated to by observing the immobility time of the forced swim mice, and the shorter the immobility time, the stronger the antidepressant effect.

[2] = tested on: tail suspended mice; assay: Tail suspension test in mice; type: in vivo, Male ICR mice; conditions: 30 min before test, last 4 min of 6 min
Source text: Male ICR mice (SPF grade) weighing 18-22 g each was suspended by […] separately at 1 cm from the end of the tail with a clamp attached to a rope at the center of top plate of a 25×25×25 cm tail suspension box, and the head is away from the box bottom by 4-5 cm. […] The results of antidepressant effects of the target compounds administrated via intraperitoneal injection as determined by the tail suspension test in mice are given in Table 1. In the tail-suspended model of mice, the antidepressant effect was evaluated by observing the immobility time of the tail-suspended mice, and the shorter the immobility time, the stronger the antidepressant effect.

[3] = tested on: tail suspended mice; assay: Tail suspension test in mice; type: in vivo, Male ICR mice; conditions: for Immobility time: last 4 min of 6 min
[4] = 2.5 mg/kg i.p., 30 min before test
[5] = 5 mg/kg i.p., 30 min before test
[6] = 10 mg/kg i.p., 30 min before test
[7] = 20 mg/kg i.p., 30 min before test
[8] = 5 mg/kg i.g., 60 min before test
[9] = 10 mg/kg i.g., 60 min before test
[10] = 20 mg/kg i.g., 60 min before test

## CN(C)CCC(Oc1cccc2c1OCCO2)c1ccco1.O=C(O)C(=O)O (stereo not shown)
other
  melting point: 101 to 103 °C

## O=C(O)C(=O)O.c1csc(C(CCN2CCCC2)Oc2cccc3c2OCO3)c1 (stereo not shown)
other
  melting point: 105 to 108 °C

## O=C(O)C(=O)O.c1csc(C(CCN2CCCCC2)Oc2cccc3c2OCO3)c1 (stereo not shown)
other
  melting point: 118 to 120 °C

## CN(C)CCC(Oc1cccc2c1OCCO2)c1cccs1.O=C(O)C(=O)O (stereo not shown)
other
  melting point: 89 to 92 °C

## CNCCC(Oc1cccc2c1OCCO2)c1cccs1.O=C(O)C(=O)O (stereo not shown)
other
  melting point: 128 to 131 °C

## CN(C)CCC(Oc1cccc2c1OCO2)c1cccs1.O=C(O)C(=O)O (stereo not shown) [Compound I1, N,N-dimethyl-3-[(benzo[1,3]dioxolan-4-yl)-oxy]-3-(thiophen-2-yl)-propylamine.oxalate]
other
  melting point: 85 to 88 °C
[1]; [4]
  Immobility time: 148.7 ± 40.3 s
[1]; [5]
  Immobility time: 86.7 ± 44.7 s
[1]; [6]
  Immobility time: 54.6 ± 44.0 s
[1]; [7]
  Immobility time: 18.6 ± 15.7 s
[2]; 2.5 mg/kg i.p.
  Immobility time: 38.2 ± 32.5 s
[2]; 5 mg/kg i.p.
  Immobility time: 20.2 ± 17.1 s
[2]; 10 mg/kg i.p.
  Immobility time: 6.2 ± 7.4 s
[2]; 20 mg/kg i.p.
  Immobility time: 2.0 ± 6.3 s

## CNCCC(Oc1cccc2c1OCO2)c1cccs1.O=C(O)C(=O)O (stereo not shown) [Compound I2]
[3]; [8]
  Immobility time: 66.1 ± 44.9 s
[3]; [9]
  Immobility time: 51.8 ± 36.0 s
[3]; [10]
  Immobility time: 22.0 ± 16.9 s
[3]; i.g., I2 5 mg/kg vs duloxetine 10 mg/kg
  effect compared with duloxetine (in words): remarkably greater than that of duloxetine at the dose of 10 mg/kg
[3]; intragastric administration, Table 2
  effect on immobility time (in words): significantly shorten the immobility time
other
  melting point: 120 to 123 °C
[1]; [4]
  Immobility time: 113.6 ± 47.4 s
[1]; [8]
  Immobility time: 104.1 ± 39.7 s
[1]; [5]
  Immobility time: 119.4 ± 47.0 s
[1]; [9]
  Immobility time: 83.7 ± 34.2 s
[1]; [6]
  Immobility time: 86.1 ± 36.5 s
[1]; [10]
  Immobility time: 60.1 ± 33.8 s
[1]; [7]
  Immobility time: 43.1 ± 37.1 s
[1]; i.g., I2 20 mg/kg vs Duloxetine 40 mg/kg
  antidepressant effect compared with Duloxetine (in words): comparable to that of Duloxetine at the dose of 40 mg/kg
[1]; intragastric administration, Table 4
  effect on immobility time (in words): significantly shorten the immobility time
[2]; 2.5 mg/kg i.p.
  Immobility time: 35.0 ± 30.0 s
[2]; 5 mg/kg i.p.
  Immobility time: 20.8 ± 32.1 s
[2]; 10 mg/kg i.p.
  Immobility time: 1.9 ± 4.0 s
[2]; 20 mg/kg i.p.
  Immobility time: 2.5 ± 4.1 s

## CN(C)CCC(Oc1cccc2c1OCO2)c1ccco1.O=C(O)C(=O)O (stereo not shown) [Compound I6, N,N-dimethyl-[3-(benzo[1,3]dioxolan-4-yl-oxy)-3-(furan-2-yl)]-propylamine.oxalate]
other
  melting point: 97 to 101 °C
[1]; [4]
  Immobility time: 92.4 ± 39.2 s
[1]; [5]
  Immobility time: 96.5 ± 43.3 s
[1]; [6]
  Immobility time: 108.2 ± 46.7 s
[1]; [7]
  Immobility time: 61.2 ± 44.5 s
[2]; 2.5 mg/kg i.p.
  Immobility time: 51.2 ± 34.3 s
[2]; 5 mg/kg i.p.
  Immobility time: 53.9 ± 46.9 s
[2]; 10 mg/kg i.p.
  Immobility time: 22.5 ± 28.1 s
[2]; 20 mg/kg i.p.
  Immobility time: 11.9 ± 16.8 s

## CNCCC(Oc1cccc2c1OCO2)c1ccco1.O=C(O)C(=O)O (stereo not shown) [Compound I7, N-methyl-[3-(benzo[1,3]dioxolan-4-yl-oxy)-3-(furan-2-yl)]propylamine.oxalate]
other
  melting point: 130 to 133 °C
[1]; [4]
  Immobility time: 94.3 ± 55.3 s
[1]; [5]
  Immobility time: 78.9 ± 43.1 s
[1]; [6]
  Immobility time: 70.9 ± 33.0 s
[1]; [7]
  Immobility time: 28.4 ± 35.8 s
[2]; 2.5 mg/kg i.p.
  Immobility time: 30.7 ± 44.1 s
[2]; 5 mg/kg i.p.
  Immobility time: 21.9 ± 21.5 s
[2]; 10 mg/kg i.p.
  Immobility time: 33.3 ± 31.2 s
[2]; 20 mg/kg i.p.
  Immobility time: 0.3 ± 0.95 s

## CNCC[C@H](Oc1cccc2ccccc12)c1cccs1 [Duloxetine, reference compound]
[3]; [9]
  Immobility time: 81.0 ± 44.7 s
[3]; [6]
  Immobility time: 35.9 to 49.2 s
[1]; [7]
  Immobility time: 96.7 to 135.4 s
[1]; 40 mg/kg i.g., 60 min before test
  Immobility time: 60.5 ± 44.1 s
